Test results as given in PMC6941124 (International Journal of Molecular Sciences, 2019).
Substitutions are numbered along the chain they refer to.

What was measured:
CK1δ R299Q = target: T1, CK1δ R299Q (Homo sapiens, UniProt P48730, R299Q); test: in vitro kinase assay, CK1δ mutant R299Q; assay type: biochemical; conditions: inhibitor at IC50 concentration previously determined for CK1δ WT; DMSO control = 100%; adjusted to WT = 50%; mean ± SD
T1 sequence (P48730 1-415 R299Q): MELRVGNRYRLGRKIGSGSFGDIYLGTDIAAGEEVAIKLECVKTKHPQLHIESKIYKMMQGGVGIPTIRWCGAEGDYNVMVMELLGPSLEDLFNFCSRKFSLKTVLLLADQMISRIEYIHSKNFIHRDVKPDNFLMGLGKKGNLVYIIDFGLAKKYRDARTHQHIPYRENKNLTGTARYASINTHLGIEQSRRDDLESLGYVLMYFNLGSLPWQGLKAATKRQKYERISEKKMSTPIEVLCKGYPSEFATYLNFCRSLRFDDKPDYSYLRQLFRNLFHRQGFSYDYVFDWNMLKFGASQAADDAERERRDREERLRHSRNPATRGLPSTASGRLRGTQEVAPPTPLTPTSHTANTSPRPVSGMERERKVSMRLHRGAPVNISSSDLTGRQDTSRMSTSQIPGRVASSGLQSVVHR
Experimental: (§1) Overexpression and purification of GST-CK1δ fusion proteins, either wild type or mutant, were performed as described previously.
(§2) Each kinase assay reaction was performed in kinase buffer (25 mM Tris-HCl (pH 7.5), 10 μM ATP, 10 mM MgCl2, 100 μM EDTA) in presence of purified GST-CK1δ kinase as source of enzyme (either wild type or mutant), an assay-specific substrate (α-casein, GST-p53^1−64, or GST-β-catenin^1−181), and radiolabeled ATP (2 μCi [γ-^32P]-ATP). For performing Michaelis–Menten analysis increasing substrate concentrations were used (α-casein: 0.39−25 μM; GST-p53^1−64: 0.09−1.87 μM; GST-β-catenin^1−181: 0.07−1.32 μM). For biological evaluation of small molecule inhibitors (SMIs), each inhibitor compound was either tested at 10 μM concentration for initial screening or by using a dilution series (0.005−10 µM) for determination of IC50 values. DMSO was used as control. Reactions were incubated for 30 min at 30 °C and reactions were stopped using 5x SDS-loading buffer (250 mM Tris-HCl [pH 6.8], 25% (v/v) β-mercaptoethanol (MSH), 50% (v/v) glycerol, 10% (w/v) SDS, 0.5% (w/v) bromphenol blue). Subsequently, samples were separated by SDS-PAGE using 12.5% acrylamide gels, stained with Coomassie, and phosphorylated substrates were visualized on X-ray film. Incorporation of radiolabeled phosphate was quantified by scintillation counting of Coomassie-stained substrate bands. Defined dilutions of the reaction master mix were counted as well in order to convert results obtained as counts per minute (CPM) to units of transferred phosphate in pmol/min. Michaelis–Menten analysis was performed using GraphPad Prism 6 (GraphPad Software, San Diego, CA, USA).

CK1δ A36V = target: T2, CK1δ A36V (Homo sapiens, UniProt P48730, A36V); test: in vitro kinase assay, CK1δ mutant A36V; assay type: biochemical; conditions: inhibitor at IC50 concentration previously determined for CK1δ WT; DMSO control = 100%; adjusted to WT = 50%; mean ± SD
T2 sequence (P48730 1-415 A36V): T1 sequence (P48730 1-415 R299Q) with A36V, Q299R
Experimental: as §1, §2

Structure (SMILES)	Residual activity of CK1δ R299Q (CK1δ R299Q)	Residual activity of CK1δ A36V (CK1δ A36V)
O=C(Nc1nc2ccc(C(F)(F)F)cc2[nH]1)c1csc(NC(=O)c2ccccc2OC(F)(F)F)n1 [Bischof-5]	64 ± 22%	43 ± 15%
Cc1ccc2nc(NC(=O)CSc3nc4c(c(=O)n3-c3ccccc3)SCC4)sc2c1 [IWP-2]	36 ± 20%	55 ± 6%
COc1ccccc1-n1c(SCC(=O)Nc2nc3ccc(C)cc3s2)nc2c(c1=O)SCC2 [IWP-4]	91 ± 60%	49 ± 7%
